Laboratory results reported in patent publication US6153587A, “Conformationally constrained LH-RH analogues, their uses and pharmaceutical compositions containing them” (Laboratoire THERAMEX, priority 1996, dated 2000).
Several values for one entry are separate records, joined by “and”; a condition that tells them apart may be missing. Identical values can stand only once. Like-named read-outs stand apart in the source and are kept apart here. Where a SMILES comes first, the peptide text is derived from it. [ ]: non-standard residue; d: D form. The star is where a group is joined. dPhe(4-Cl) = N[C@H](Cc1ccc(Cl)cc1)C(=O)O; d2Nal = N[C@H](Cc1ccc2ccccc2c1)C(=O)O; Lys(iPr) = CC(C)NCCCC[C@H](N)C(=O)O; d3Pal = N[C@H](Cc1cccnc1)C(=O)O; Nicotinoyl = O=C(c1cccnc1)*

Legend:
LH-RH receptors [1] = target: T1, LH-RH receptors (Rattus norvegicus, UniProt P30969); test: Total plasma testosterone in male Sprague-Dawley rats after subcutaneous injection; type: in vivo; conditions: 30 nanograms/kg subcutaneous; for Total testosterone: plasma at two hours, male Sprague-Dawley rats
T1 construct: from tissue; host or cells: rat pituitary membrane fraction (female Sprague Dawley)
T1 sequence (P30969 1-327): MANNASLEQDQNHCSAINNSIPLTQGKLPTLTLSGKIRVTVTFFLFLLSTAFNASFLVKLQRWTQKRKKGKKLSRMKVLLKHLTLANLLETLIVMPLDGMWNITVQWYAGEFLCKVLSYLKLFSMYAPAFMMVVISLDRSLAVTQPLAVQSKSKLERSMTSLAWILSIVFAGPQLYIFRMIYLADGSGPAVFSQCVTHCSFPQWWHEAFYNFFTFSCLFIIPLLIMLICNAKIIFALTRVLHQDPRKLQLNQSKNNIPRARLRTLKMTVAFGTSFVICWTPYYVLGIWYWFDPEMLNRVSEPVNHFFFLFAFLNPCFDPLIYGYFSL
Description: (§1) The peptides according to the general formula (IIa) exert an agonist activity upon the LH-RH receptors in vivo, resulting in the induction of ovulation in the female and in the stimulation of testosterone secretion in the male following acute subcutaneous administration.
Adult male Sprague-Dawley rats are treated by a subcutaneous injection of LH-RH agonists at the same dose of 30 nanograms/kg dissolved in PBS. Two hours later, blood samples are drawn for total plasma testosterone measurement by direct radioimmunoassay (Immunotech). At this dose, LH-RH itself is not active standard LH-RH agonists and selected examples according to formula (Ila) are compared in Table 3 below: […]

LH-RH receptors [2] = target: T1, LH-RH receptors; test: Induction of ovulation in pentobarbital-blocked female Wistar rats; type: in vivo; conditions: subcutaneous
Description: as §1
Adult female Wistar rats are first monitored for normal estrous cyclicity by daily vaginal smears. After at least 2 regular 4-day cycles, they all receive an intraperitoneal injection of 50 mg/kg of sodium pentobarbital around 2:00 PM on the day of proestrus, which blocks the spontaneous ovulation in the negative control animals receiving in addition only the subcutaneous vehicle (PBS: phosphate buffered saline, 0.05 M, pH 7.4 containing 0.1% bovine serum albumin). At the same time, test animals are injected subcutaneously with LH-RH, standard LH-RH agonists or examples according to the formula (Ha), at various doses in solution in the vehicle described above. The following morning, the oviducts are excised and carefully dissected to search for ovocytes. None are found in the negative pentobarbital-blocked animals.
If effective, LH-RH agonists induce ovulation during the night between proestrus and estrus. The percentage of ovulating female rats, defined by the presence of at least one ovocyte in one of the two oviducts, is plotted as a function of the injected dose.

LH-RH receptors [3] = target: T1, LH-RH receptors; test: Affinity for LH-RH receptors: [125I]-buserelin binding to rat pituitary membranes; conditions: for Ki: 2 hours at 4° C., Ki from IC50 by Cheng-Prusoff
Description: This affinity has been determined according to the following method:
Pituitaries from female Sprague Dawley rats were removed and homogenized with a Potter homogenizer in a 25 mM HEPES buffer (pH 7.4) containing 0.32 M sucrose, 100 μg/l PMSF (phenylmethylsulfonylfluoride), 5.6 U/l aprotinin and 10,000 U/l bacitracin. The homogenates were centrifuged at 700 g for 10 minutes and the supernatants were further centrifuged at 12,500 g for 30 minutes. The pellets were homogenized and centrifuged as described above, in the same buffer but without sucrose.
All homogenization, centrifugation and subsequent incubation steps were carried out at 4° C.
The assay was terminated by filtration under suction (Brandel 96-well harvester) through Whatman GF/B glass fiber filters. […] Each compound was tested in at least 4 experiments.
Specific binding data were analysed according to Scatchard's method.
For each test compound, the inhibitory constant (Ki) was calculated from its IC50 according to the Cheng and Prussofs equation: Ki=IC50 /(1+[radioligand]/Kd). Ki was then transformed into pKi (=-log Ki) for final expression of affinity scales.

LH-RH receptors [4] = target: T1, LH-RH receptors; test: Inhibition of ovulation in female Wistar rats; type: in vivo
Description: The peptides according to the general formula (IIb) exert an antagonist activity upon the LH-RH receptors in vivo, resulting in the inhibition of ovulation in the female.
Adult female Wistar rats are first monitored for normal estrous cyclicity by daily vaginal smears. After at least 2 regular 4-day cycles, they received by subcutaneous injection either the vehicle alone (0.5 ml of a mixture of propylene-glycol and water: 20/80 vol/vol), or the LH-RH antagonist according to the formula (IIb) dissolved in this vehicle, around 2:00 PM on the day of proestrus.
If effective, LH-RH antagonists totally block ovulation. […] The 50% inhibitory dose of antide is slightly lower than 1 μg/rat.

[5] = 20 to 70 μM [125I]-buserelin, read-out: pKi (affinity for LH-RH receptors) (converted)
[6] = pKi (affinity for LH-RH receptors), [125I]-buserelin

Row | ED50 (dose producing 50% of ovulation) (LH-RH receptors [2]) [nanograms/rat] | Ki (LH-RH receptors [3]; [5]) | IC50 range in words (LH-RH receptors [3]; [125I]-buserelin) | Total testosterone (LH-RH receptors [1]) [ng/mL] | Compound | further results
1 | 15 | – | – | – | CC(C)C[C@H](NC(=O)CNC(=O)[C@H](Cc1ccc(O)cc1)NC(=O)[C@H](CO)NC(=O)[C@H](Cc1c[nH]c2ccccc12)NC(=O)[C@H](Cc1c[nH]cn1)NC(=O)[C@@H]1CCC(=O)N1)C(=O)N[C@@H](CCCNC(=N)N)C(=O)N1CCC[C@H]1C(=O)NCC(N)=O [LH-RH] | activity on testosterone secretion, in words (LH-RH receptors [1]): not active
2 | – | 603 pM | subnanomolar range | – | CC(=O)N[C@H](Cc1ccc2ccccc2c1)C(=O)N[C@H](Cc1ccc(Cl)cc1)C(=O)N[C@H](Cc1cccnc1)C(=O)N[C@@H](CO)C(=O)N[C@@H](CCCCNC(=O)c1cccnc1)C(=O)N[C@H](CCCCNC(=O)c1cccnc1)C(=O)N[C@@H](CC(C)C)C(=O)N[C@@H](CCCCNC(C)C)C(=O)N1CCC[C@H]1C(=O)N[C@H](C)C(N)=O [Antide] (Ac-[d2Nal][dPhe(4-Cl)][d3Pal]SK(Nicotinoyl)[dK](Nicotinoyl)L[Lys(iPr)]P[dA]-NH2; N-terminus and C-terminus assumed) | Number of ovulating females/total number of treated females (LH-RH receptors [4]; dose 0.5 μg/rat subcutaneous): 4/5; Number of ovulating females/total number of treated females (LH-RH receptors [4]; dose 1 μg/rat subcutaneous): 5/16; Number of ovulating females/total number of treated females (LH-RH receptors [4]; dose 2.5 μg/rat subcutaneous): 2/6; Number of ovulating females/total number of treated females (LH-RH receptors [4]; dose 5 μg/rat subcutaneous): 0/11; Number of ovulating females/total number of treated females (LH-RH receptors [4]; dose 10 μg/rat subcutaneous): 0/8; 50% inhibitory dose (LH-RH receptors [4]; inhibition of ovulation, subcutaneous): lower than 1 μg/rat
3 | 2.9 | < 1000 pM and 141 pM | subnanomolar range | 12.1 ± 0.7 | CC(C)C[C@H](NC(=O)[C@@H](Cc1c[nH]c2ccccc12)NC(=O)[C@H](Cc1ccc(O)cc1)NC(=O)[C@H](CO)NC(=O)[C@H](Cc1c[nH]c2ccccc12)NC(=O)[C@H](Cc1c[nH]cn1)NC(=O)[C@@H]1CCC(=O)N1)C(=O)N[C@@H](CCCNC(=N)N)C(=O)N1CCC[C@H]1C(=O)NCC(N)=O [Tryptorelin] | –
4 | – | < 1000 pM and 105 pM | subnanomolar range | 12.7 ± 1.9 | CCNC(=O)[C@@H]1CCCN1C(=O)[C@H](CCCNC(=N)N)NC(=O)[C@H](CC(C)C)NC(=O)[C@@H](Cc1cn(Cc2ccccc2)cn1)NC(=O)[C@H](Cc1ccc(O)cc1)NC(=O)[C@H](CO)NC(=O)[C@H](Cc1c[nH]c2ccccc12)NC(=O)[C@H](Cc1cnc[nH]1)NC(=O)[C@@H]1CCC(=O)N1 [Histrelin] | –
5 | 1.9 | – | – | 11.9 ± 1.5 | CCNC(=O)[C@@H]1CCCN1C(=O)[C@H](CCCNC(=N)N)NC(=O)[C@H](CC(C)C)NC(=O)[C@@H](CC(C)C)NC(=O)[C@H](Cc1ccc(O)cc1)NC(=O)[C@H](CO)NC(=O)[C@H](Cc1c[nH]c2ccccc12)NC(=O)[C@H](Cc1c[nH]cn1)NC(=O)[C@@H]1CCC(=O)N1 [Leuprorelin] | –
6 | 4.8 | < 1000 pM and 126 pM | subnanomolar range | – | CCNC(=O)[C@@H]1CCCN1C(=O)[C@H](CCCN=C(N)N)NC(=O)[C@H](CC(C)C)NC(=O)[C@@H](Cc1c[nH]c2ccccc12)NC(=O)[C@H](Cc1ccc(O)cc1)NC(=O)[C@H](CO)NC(=O)[C@H](Cc1c[nH]c2ccccc12)NC(=O)[C@H](Cc1cnc[nH]1)NC(=O)[C@@H]1CCC(=O)N1 [Deslorelin] | –

Row | Compound | ED50 (dose producing 50% of ovulation) (LH-RH receptors [2]) [nanograms/rat] | Ki (LH-RH receptors [3]; [5]) | IC50 range in words (LH-RH receptors [3]; [125I]-buserelin) | Total testosterone (LH-RH receptors [1]) [ng/mL] | further results
7 | CC(C)C[C@H](NC(=O)[C@@H](COC(C)(C)C)NC(=O)[C@H](Cc1ccc(O)cc1)NC(=O)[C@H](CO)NC(=O)[C@H](Cc1c[nH]c2ccccc12)NC(=O)[C@H](Cc1cnc[nH]1)NC(=O)[C@@H]1CCC(=O)N1)C(=O)N[C@@H](CCCNC(=N)N)C(=O)N1CCC[C@H]1C(=O)NNC(N)=O [Goserelin] | 4.3 | – | – | 15.0 ± 2.5 | Ki (LH-RH receptors [3]; [6]): 2630 pM
8 | CCNC(=O)[C@@H]1CCCN1C(=O)[C@H](CCCNC(=N)N)NC(=O)[C@H](CC(C)C)NC(=O)[C@@H](COC(C)(C)C)NC(=O)[C@H](Cc1ccc(O)cc1)NC(=O)[C@H](CO)NC(=O)[C@H](Cc1c[nH]c2ccccc12)NC(=O)[C@H](Cc1cnc[nH]1)NC(=O)[C@@H]1CCC(=O)N1 [Buserelin] | – | – | subnanomolar range | 15.4 ± 0.71 | Ki (LH-RH receptors [3]; [6]): < 1000 pM and 427 pM
